In one data set the test system is EWS-FLI1 and RHA. Put plainly: ELISA of binding between EWS-FLI1 and RHA. As to the method: EWS-FLI1 was used to coat the surface of a 96 well plate (MaxiSorb) at a concentration of 150ng/well in 100μL buffer containing 20mM Tris, 500mM sodium chloride, and 1M imidazole. Following overnight incubation, the plate was blocked with 4% BSA in PBS and washed with PBS + 0.1% Tween-20. Small molecules were added at concentrations of 1μM, 3μM, 10μM, and 30μM, followed by RHA (300ng/well) and allowed to incubate overnight. Following washing, incubation with RHA antibody (Everest) and anti-goat secondary, protein binding was detected using a TMB Peroxidase EIA Substrate Kit (Bio-Rad) per the manufacturer's instructions.
For orientation: An ELISA detects its analyte on a solid surface through an enzyme-linked reagent.

The target of data set [1] is T1, EWS-FLI1/RHA interaction in TC32 cells (Homo sapiens, UniProt Q01543+Q01844).
T1 construct: FLI1 C-terminal portion (fusion partner, Q01543); endogenous in cells; host or cells: TC32
T1 sequence (Q01844+Q01543 with tags, fused parts or gaps): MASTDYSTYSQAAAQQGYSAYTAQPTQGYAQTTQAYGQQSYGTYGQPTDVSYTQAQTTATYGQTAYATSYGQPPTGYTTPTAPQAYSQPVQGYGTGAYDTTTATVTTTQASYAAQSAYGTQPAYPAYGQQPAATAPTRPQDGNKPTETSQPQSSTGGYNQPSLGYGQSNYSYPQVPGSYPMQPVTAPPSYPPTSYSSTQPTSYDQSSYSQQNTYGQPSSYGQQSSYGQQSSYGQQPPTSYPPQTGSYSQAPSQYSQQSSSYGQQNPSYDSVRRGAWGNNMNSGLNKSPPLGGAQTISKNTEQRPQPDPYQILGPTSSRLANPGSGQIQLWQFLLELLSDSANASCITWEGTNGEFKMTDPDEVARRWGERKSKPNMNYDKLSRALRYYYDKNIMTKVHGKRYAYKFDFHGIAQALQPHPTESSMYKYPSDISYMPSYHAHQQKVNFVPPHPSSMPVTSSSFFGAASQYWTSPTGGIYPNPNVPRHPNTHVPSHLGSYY
The data set is described as follows: Co-immunoprecipitation of EWS-FLI1 and RHA from treated TC32 cells, western blot densitometry. Format: cell-based. The settings on record: 15 hours; for RHA coimmunoprecipitated with EWS-FLI1: 10μM; for IC50: 0.3 to 10μM, read-out: IC50, densitometry of RHA relative to FLI1. The protocol: TC32 were grown to ~70% confluency and cells were treated for 15 hours with small molecule. Nuclear lysate was collected using the Active Motif Magnetic Co-IP Kit (Active Motif). Protein concentration was determined using bicinchoninic acid protein assay for each lysate (Pierce) and lysate was bound to 1μg of antibody overnight at 4C on a rotating axis with addition of same concentration of small molecule as used for 15 hour treatment. Magnetic beads (Active Motif) were added to the lysates and tumbled for 2 hours at 4C. Immunoprecipitated proteins were resolved using 10% PAGE and transferred to a polyvinylidene difluoride membrane (Millipore). Membranes were blocked in 5% nonfat dry milk in TTBS (20mM Tris-HCl, 150mM NaCl, 0.5% Tween 20) for 2 hours. FLI1 (Santa Cruz Biotechnologies) and RHA (Abcam) antibodies were used at 1:1000 dilutions in 5% nonfat dry milk for 2 hours. Horseradish peroxidase-linked anti-rabbit antibody (GE Healthcare) was added for 1 hour. Detection was carried out using Millipore Immobilon Western Chemiluminescent HRP Substrate per the manufacturer's instructions (Millipore Corp.). Chemiluminescence was detected using a Fujifilm LAS-3000 imaging system. Densitometry values were obtained using ImageJ software.
Background: Immunoblotting shows a protein as a band on a membrane.

The test system of the next data set is STA-ET 7.2 cells. Put plainly: Cellular proliferation (WST) assay, STA-ET 7.2. Format: cell-based. The settings on record: 72 h; STA-ET 7.2, ESFT (Type 2); read-out: IC50 at 3 days (+/− SEM). As to the method:
(§1) TC32, TC71, RDES, MMH-ES-1, STA-ET 7.2, A4573, and PC3 cells were grown in RPMI with 10% FBS and 1% HEPES. SKES cells were grown in McCoy's 5A medium with 15% FBS. MCF7, MDA-MB-231, PANC1, and ASPC1 cells were grown in colorless DMEM with 10% FBS. Cells were grown at a plating density of 5,000 – 15,000 cells/well, depending on cell line, in a 96-well plate. Small molecule or vehicle alone (DMSO) were added to cells in appropriate growth media the day after plating. After three days, viable cells were quantified using WST (Roche) according to the manufacturer's protocol. IC50 values were calculated by sigmoidal dose-response curve fit using Prism Graphpad 4.0.

A further data set concerns MCF7 cells. Put plainly: Cellular proliferation (WST) assay, MCF7. The data set is classed as cell-based. To be noted: Homo sapiens, 72 h; MCF7, breast; read-out: IC50 at 3 days (+/− SEM). The protocol: as §1
For data set [2], the system named is MDA-MB-231 cells. Put plainly: Cellular proliferation (WST) assay, MDA-MB-231. The data set is classed as cell-based. To be noted: Homo sapiens, 72 h; MDA-MB-231, breast; read-out: IC50 at 3 days (+/− SEM). The protocol:
as §1

The nature of data set [3]: Pharmacokinetic analysis in rats. The data set is classed as in vivo. The settings on record: both sexes, Sprague-Dawley, plasma, po; rat, gavage administration. The protocol: (§2) All pharmacokinetic studies were performed using Sprague-Dawley rats. Nine rats per gender were assigned to nine dose groups, which received either a single IV injection of YK-4-279, (S)-YK-4-279, or (R)-YK-4-279 at a target dose of 25 mg/kg, or a single gavage administration of small molecule at a target dose level of 25 or 50 mg/kg. Plasma was obtained from the rats and samples were processed by liquid extraction followed by analysis using liquid chromatography with mass spectrometry (LC/MS). Average urine concentrations were measured at intervals from 0-4, 4-8, and 8-12 hours after dosing. 18 Fox Chase SCID Beige mice were injected with A4573 cells and received six doses of (S)-YK-4-279 at 75 mg/kg to determine concentration of small molecule in the tumors.

Data set [4] relates to caspase-3 activity in ESFT cells (TC32, RDES, SKES, A4573, MMH-ES-1, STA-ET 7.2). The data set is described as follows: Caspase-3 activity in ESFT cells. Format: cell-based. To be noted: 10μM, 18 hours. As to the method: (§3) Cells were plated at 100,000 – 200,000 cells/well, depending on cell line, in a 12 well plate. Small molecule was added the following day. 18 hours later, lysates were collected using the manufacturer's protocol for the AC-DEVD-AMC substrate (BD Bioscience Pharmingen). Caspase-3 substrate was incubated for 2 hours with protein lysate and fluorescence from cleaved substrate was measured in a fluorimeter. Fluorescent signal was then normalized to protein lysate via BCA assay.

Data set [5] deals with caspase-3 activity in A4573 ESFT cells. Put plainly: Caspase-3 activation dose titration in A4573 cells. The data set is classed as cell-based. The settings on record: between 0.3 and 1μM, 18 hours. The protocol: as §3
Data set [6] is described as follows: Evaluation of racemization in A4573 ESFT xenograft tumors. Format: in vivo. The settings on record: A4573 tumor-bearing SCID mice, IP (75 mg/kg), tumors resected two hours following dosing. As to the method: as §2
Data set [7] deals with MDA-MB-231 cells. The settings on record: MDA-MB-231 from a different source, previously reported; cited from earlier work.
For the next data set, the system named is PANC1 cells. The settings on record: PANC1 from a different source, previously reported; cited from earlier work.
Where [8] appears, read: as little as 1μM small molecule.

Where two headings read alike, the source gives them in different places.

As for `COc1ccc(C(=O)C[C@]2(O)C(=O)Nc3c(Cl)ccc(Cl)c32)cc1` [(R)-YK-4-279], the “inhibition of EWS-FLI1/RHA binding” value in the data set on EWS-FLI1 and RHA (30μM) was “does not inhibit the binding”. The “RHA coimmunoprecipitated with EWS-FLI1” value in [1] is on record as “coimmunoprecipitation of EWS-FLI1 with RHA”. Further, the figures for the IC50 in the data set with STA-ET 7.2 cells, in the data set on MCF7 cells and in the data set on MDA-MB-231 cells [2] were 21.2 µM, > 30 µM and 22 µM, respectively. Also, the bioavailability in [3] was 8 to 15%.
Take `COc1ccc(C(=O)C[C@@]2(O)C(=O)Nc3c(Cl)ccc(Cl)c32)cc1` [(S)-YK-4-279]: in the data set on EWS-FLI1 and RHA (setting [8]), the “inhibition of EWS-FLI1/RHA binding” value is recorded as “able to inhibit the protein-protein interaction”. In addition, in data set [1], the “RHA coimmunoprecipitated with EWS-FLI1” value is reported as “significant reduction in complexed RHA”. Besides, the IC50 in [1] stood at 1.8 µM; in the data set on STA-ET 7.2 cells, 0.31 µM; in the data set with MCF7 cells, 19.5 µM; with MDA-MB-231 cells [2], 1.17 µM. The “caspase-3 activation, average across the panel of six ESFT cell lines” value in data set [4] amounted to 10.3 fold. The “slope (m), rate of caspase activity increase” value in [5] came to 7.23 ± 0.32. In data set [6], the “Percent of (S)-YK-4-279 present in tumor” value turned out to be 100%. For the same compound, the bioavailability in data set [3] was in the range of 2 to 6%.
As to `COc1ccc(C(=O)CC2(O)C(=O)Nc3c(Cl)ccc(Cl)c32)cc1` (centres unmarked) [YK-4-279], the “inhibition of EWS-FLI1/RHA binding” value with EWS-FLI1 and RHA (setting [8]) was “able to inhibit the protein-protein interaction”. For the same compound, in data set [1], the “RHA coimmunoprecipitated with EWS-FLI1” value is recorded as “significant reduction in complexed RHA”. The IC50 was 4.9 µM in data set [1]; 0.6 µM with STA-ET 7.2 cells; 22.8 µM in the data set with MCF7 cells; 0.82 µM with MDA-MB-231 cells [2]; > 20 µM with MDA-MB-231 cells [7]; > 20 µM with PANC1 cells. Also, the “caspase-3 activation, average across the panel of six ESFT cell lines” value in [4] was 8.8 fold. The “slope (m), rate of caspase activity increase” value in [5] is 4.43 ± 0.66.

What is called bioavailability is dose-corrected exposure relative to a reference, in per cent. High values mean much systemic uptake, low ones little systemic uptake.

These data come from article PMC3326647, “Single Enantiomer of YK-4-279 Demonstrates Specificity in Targeting the Oncogene EWS-FLI1” (Oncotarget, 2012).
